Experimental data taken from patent US20080125432A1 (Devgen NV, priority 2004, published 2008).

Legend:
[1] = biological target: T1, Kv1.5 potassium channel (Homo sapiens, UniProt P22460); experiment: Patch clamp, CHO cells stably expressing the Kv1.5 potassium channel; format: cell-based; conditions: Kv1.5 mediated current
T1 construct: expressed in transfected cells
Experimental: The cDNA coding for Kv1.5 (GenBank Acc. No. M55513) was cloned into the pcDNA6-vector (Invitrogen, Leek, Netherlands). A C-terminal epitope-tag was introduced via PCR. The plasmid was sequenced and subsequently introduced into cells. Clonal cell lines stably expressing the Kv1.5 channel were established. Expression of protein was analyzed by means of immunofluorescence using antibodies directed against the epitope-tag. The functional expression of the ion channels was validated electrophysiologically.
The experiments were performed using CHO cells stably expressing the Kv1.5 potassium channel.
From a HP of −60 mV cells were hyperpolarised for 100 ms to […], followed by a 500 ms depolarisation to +50 mV. The current amplitude at the end of the test pulse to +50 mV was used for the analysis. Pulse cycling rate was 10 s (0.1 Hz).
The application protocol of test compounds is depicted in FIG. 7. The first 14 stimuli were required to achieve steady state of the current amplitude. Unspecific current reduction was calculated and served for correcting procedures during data analysis. After the 14th stimulus the test compound application was started (indicated by an arrow) via teflon and silicone tubings and was assumed to reach the cell after 6 additional stimuli. The perfusion is adjusted by using a defined drop rate of 10 drops per 10-12 s. Up to three concentrations were applied successively to one cell followed by a wash period of 5 minutes. Total number of stimuli was 140. Effect of the test compound was analysed between stimulus nos. 21 and 50 (5 min., long dashed line) for the first concentration, between stimulus nos. 51 and 80 (5 min., short dashed line) for an additional 5 minutes. If the cell was still stable, a wash was added afterwards. Start of test compound application at the given concentration is indicated by arrows. Number of stimuli of each single episode are shown in the protocol of FIG. 7.
The effects of the compounds were investigated at one concentration (2 μM or 1 μM) on the Kv1.5-mediated potassium channel. For comparison, the vehicle control experiments on the Kv1.5 mediated potassium channel. Results are presented in 9Table 9

[2] = biological target: T2, human Kv4.3 (Homo sapiens, UniProt Q9UK17); experiment: C. elegans based high-throughput screen for Kv4.3 modulators (pharynx pumping, Calcein AM uptake), transgenic strain UG1755; format: in vivo; conditions: for Ratio N2/Kv4.3: EC50 on N2 divided by EC50 on the Kv4.3 expressing strain, cut-off 1.8; for EC50: transgenic strain UG1755 expressing human Kv4.3, read-out: EC50 (μM) Kv4.3 worm
T2 construct: expressed in transfected cells; host or cells: transgenic C. elegans strain UG1755 (N2 injected with plasmid pGV8, integrated array)
T2 sequence (Q9UK17 1-655): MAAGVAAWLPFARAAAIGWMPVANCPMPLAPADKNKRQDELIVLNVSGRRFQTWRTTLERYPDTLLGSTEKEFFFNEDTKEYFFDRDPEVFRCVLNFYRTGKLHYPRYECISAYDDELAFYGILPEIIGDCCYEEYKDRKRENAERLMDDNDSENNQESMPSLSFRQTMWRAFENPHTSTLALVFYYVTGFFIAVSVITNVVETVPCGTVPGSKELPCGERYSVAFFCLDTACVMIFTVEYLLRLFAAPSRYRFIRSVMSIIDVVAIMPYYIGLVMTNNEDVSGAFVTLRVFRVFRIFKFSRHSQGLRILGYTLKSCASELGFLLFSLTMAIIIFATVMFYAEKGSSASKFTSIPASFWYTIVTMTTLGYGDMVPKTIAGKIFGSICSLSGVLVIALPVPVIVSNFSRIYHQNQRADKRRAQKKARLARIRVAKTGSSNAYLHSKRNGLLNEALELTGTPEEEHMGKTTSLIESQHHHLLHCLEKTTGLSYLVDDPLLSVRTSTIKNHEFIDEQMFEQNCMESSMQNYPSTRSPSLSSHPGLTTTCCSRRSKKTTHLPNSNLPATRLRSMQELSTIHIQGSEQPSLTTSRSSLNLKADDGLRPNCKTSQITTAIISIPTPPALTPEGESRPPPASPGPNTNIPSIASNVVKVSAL
Source text: A C. elegans based high-throughput screen for Kv4.3 modulators has been used to establish an in vivo SAR (structure-activity relationships: the effect of chemical structure on biological activity) on Kv4.3 for the compounds according to the present invention.
This assay has employed a stable transgenic C. elegans strain that functionally expressed human Kv4.3 in the pharynx and a visible selection GFP maker in body-wall muscle.
The pharynx is the feeding organ of C. elegans and contracts rhythmically 3-4 times per second. The pharynx contraction is controlled by the nervous system via action potentials similar to the human myocyte and can thus be used to study human ion channel physiology in vivo in C. elegans.
Introducing the human Kv4.3 channel into the C. elegans pharynx influences the C. elegans action potential in a characteristic fashion. The additional number of potassium channels increases potassium ion efflux, enhances re-polarization and thereby shortens the action potential duration. […] The shortened action potentials of the C. elegans pharynx resulting from expression of human Kv4.3, changes the pharynx contraction-relaxation cycle and consequently reduces the pumping/feeding in these transgenic animals. This change of pumping is an end-point amenable to high-throughput screening technology. The pumping end-point can be technically translated into a high-throughput read-out by the use of a pro-fluorescent dye. The pro-fluorescent dye is taken up by C. elegans depending on its pumping activity and converted into a fluorescent dye by enzymes located in its intestines. After a defined incubation period, the change of fluorescence intensity in the intestine can be measured with a plate reader.
The screening of the compounds according to the present invention has been performed in the C. elegans based high-throughput screen for Kv4.3 modulators described above. The method for testing the activity on human Kv4.3 of the compounds according to the invention with C. elegans strains expressing human Kv4.3 for their activity is the same as the method described in WO 03/097682. The method for testing the compounds on wild-type C. elegans strains not expressing human Kv4.3 is the same as the method described in WO 00/63427. Briefly, UG1755 animals have been grown in large numbers and staged young adults (no or only few eggs inside the uterus) have been harvested on the day of screening. Approximately 125 animals in 80 μl buffer have been dispensed per well of a “U shaped 96-well compound plate The compound plate contained already compound material at a final concentration of 30 μM in 0.3% DMSO. After one hour incubation 10 μl of the fluorescent label Calcein AM (CAM) have been added to achieve a final concentration of 5 μM CAM and 0.8% DMSO. After another four hours of incubation at 20° C., the drinking of C. elegans animals (or the “reaction 8 measured by the uptake of CAM) has been stopped by adding 10 μl of a 60 μM ivermectin solution. The fluorescence intensity (counts per second) has been measured 40 minutes after adding ivermectin with the Wallac plate reader at a wavelength of 535 nm (after excitation at 485 nm).
The active compounds have been identified and confirmed by dose-response analysis. An EC50 has been calculated and the results are listed under Table 3. Dose-response curves have been obtained at concentrations of 30 μM. EC50 has been calculated using XLfit 2.09 software package.

[3] = 2 μM, fraction, cell also prints %

T1 sequence (P22460 whole entry): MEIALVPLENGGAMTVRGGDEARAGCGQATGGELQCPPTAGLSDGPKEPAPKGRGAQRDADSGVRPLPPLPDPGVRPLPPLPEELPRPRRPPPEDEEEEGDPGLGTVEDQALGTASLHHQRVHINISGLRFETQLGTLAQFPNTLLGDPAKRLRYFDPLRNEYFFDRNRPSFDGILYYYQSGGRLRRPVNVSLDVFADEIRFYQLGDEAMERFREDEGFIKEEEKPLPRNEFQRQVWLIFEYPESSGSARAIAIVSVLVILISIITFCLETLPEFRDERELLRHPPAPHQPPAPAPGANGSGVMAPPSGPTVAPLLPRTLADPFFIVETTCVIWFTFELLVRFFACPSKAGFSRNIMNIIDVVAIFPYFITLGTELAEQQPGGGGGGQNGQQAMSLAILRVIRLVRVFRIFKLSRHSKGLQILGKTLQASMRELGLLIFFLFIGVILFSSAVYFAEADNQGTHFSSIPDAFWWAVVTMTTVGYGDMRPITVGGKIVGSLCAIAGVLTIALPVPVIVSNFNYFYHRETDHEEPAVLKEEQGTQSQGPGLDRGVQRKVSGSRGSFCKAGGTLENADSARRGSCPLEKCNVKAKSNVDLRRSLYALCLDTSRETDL

SMILES	Relative remaining current (mean after 8-10 min) ([1]; 1 μM) [%]	Ratio N2/Kv4.3 [2]	EC50 [2] [µM]	further results
COc1ccccc1Nc1nc(C)c(C(=O)N[C@H]2CCC[C@@H]2OCc2ccccc2)s1 [Compound 68, 2-(2-methoxy-phenylamino)-4-methyl-thiazole-5-carboxylic acid (1S,2S)-2-(benzyloxycyclopent-1-yl) amide]				Relative remaining current (mean after 8-10 min) [1, 3]: 0.51 (51%); Relative remaining current (mean after 5 min) [1, 3]: 0.66 (66%)
Cc1nc(Sc2ccccc2)sc1C(=O)N[C@H]1CCC[C@@H]1OCc1ccccc1 [Compound 81, 4-methyl-2-phenylsulfanyl-thiazole-5-carboxylic acid ((1S,2S)-2-benzyloxycyclopent-1-yl) amide]	44			
Cc1nc(Nc2ccc(Cl)cc2)sc1C(=O)N[C@@H]1CCC[C@H]1OCc1ccccc1 [Compound 30, 2-(4-chloro-phenylamino)-4-methyl-thiazole-5-carboxylic acid (1R,2R)-2-(benzyloxycyclopent-1-yl) amide]		>6.4	9	
Cc1nc(Nc2ccc(Br)cc2)sc1C(=O)N[C@H](C)c1ccc2ccccc2c1 [Compound 19, 2-(4-bromo-phenylamino)-4-methyl-thiazole-5-carboxylic acid (R)-1-(naphthalen-2-yl)ethyl amide]		4.7	7	
Cc1nc(Nc2ccc(F)cc2)sc1C(=O)N[C@H](C)c1ccc2ccccc2c1 [Compound 16, 2-(4-fluoro-phenylamino)-4-methyl-thiazole-5-carboxylic acid (R)-1-(naphthalen-2-yl)ethyl amide]		>1.8	32.1	
COc1ccccc1Nc1ccc(C(=O)N[C@H]2CCC[C@@H]2OCc2ccccc2)s1 [Compound 75, 2-(2-methoxy-phenylamino)-thiophene-5-carboxylic acid ((1S,2S)-2-benzyloxycyclopent-1-yl) amide]	77			

Second part, led by results:

Relative remaining current (mean after 8-10 min) ([1]; 1 μM) [%]	Ratio N2/Kv4.3 [2]	EC50 [2] [µM]	SMILES	further results
86			Cc1nc(Nc2ccc3occc3c2)sc1C(=O)N[C@H]1CCC[C@@H]1OCc1ccccc1 [Compound 126, 2-(benzofuran-5-ylamino)-4-methyl-thiazole-5-carboxylic acid ((1S,2S)-2-benzyloxycyclopent-1-yl) amide]	
79			Cc1nc(Nc2cccc3cccnc23)sc1C(=O)N[C@H]1CCC[C@@H]1OCc1ccccc1 [Compound 94, 4-methyl-2-(quinolin-8-ylamino)-thiazole-5-carboxylic acid ((1S,2S)-2-benzyloxycyclopent-1-yl) amide]	
	2.4	13.5	Cc1nc(Nc2ccc(Br)cc2)sc1C(=O)N[C@@H](C)c1ccc2ccccc2c1 [Compound 18, 2-(4-bromo-phenylamino)-4-methyl-thiazole-5-carboxylic acid (S)-1-(naphthalen-2-yl)ethyl amide]	
